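Step 1: Grow cells in 96-well plates. Step 2: Expose to compound for 48 hours at 5 concentrations. Step 3: Interpolate endpoints linearly; if unreached, use highest concentration. Here, GI50 denotes the concentration required for 50% inhibition of growth. Definition used: TGI = concentration required for complete inhibition of growth.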
How the values were obtained:
Assay in all cases: growth of human tumour cells (NCI), 48 h
MDA-MB-231 breast = test system: MDA-MB-231 breast
HOP-62 NSCLC = test system: HOP-62 NSCLC
HS 578T breast = test system: HS 578T breast
MOLT-4 leukemia = test system: MOLT-4 leukemia
A498 renal = test system: A498 renal
TK-10 renal = test system: TK-10 renal
ACHN renal = test system: ACHN renal
KM12 colon = test system: KM12 colon
SNB-19 CNS = test system: SNB-19 CNS
NCI-H522 lung = test system: NCI-H522 lung
RPMI-8226 leukemia = test system: RPMI-8226 leukemia

| Structure (SMILES) | GI50 (MDA-MB-231 breast) | TGI (MDA-MB-231 breast) | GI50 (HOP-62 NSCLC) | TGI (HOP-62 NSCLC) | GI50 (HS 578T breast) | TGI (HS 578T breast) | GI50 (MOLT-4 leukemia) | TGI (MOLT-4 leukemia) | GI50 (A498 renal) | TGI (A498 renal) | GI50 (TK-10 renal) | TGI (TK-10 renal) | GI50 (ACHN renal) | TGI (ACHN renal) | TGI (KM12 colon) | TGI (SNB-19 CNS) | TGI (NCI-H522 lung) | TGI (RPMI-8226 leukemia) |
| --- | --- | --- | --- | --- | --- | --- | --- | --- | --- | --- | --- | --- | --- | --- | --- | --- | --- | --- |
| O=C(/C=C(/C=C/c1ccc2[nH]ccc2c1)OB(F)F)/C=C/c1ccc2[nH]ccc2c1 | 3.38 µM | > 100 µM | 3.38 µM | > 100 µM | 3.96 µM | > 100 µM | 2.06 µM | > 100 µM | 2.61 µM | 6.71 µM | 4.78 µM | > 100 µM | 2.52 µM | 7.57 µM |  |  |  |  |
| Cc1ccc2c(c1)-c1nc(N)c(C#N)c(-c3ccc(Cl)cc3)c1CCS2(=O)=O |  | > 100 µM |  |  |  | > 100 µM |  |  |  | 92.1 µM |  | > 100 µM |  | > 100 µM | > 100 µM | > 100 µM | > 100 µM |  |
| COc1cc2c(c(O)c1O)C(=O)C1CCC(=O)N1C2c1cccc2ccccc12 (configuration not stated) |  |  |  | > 50 µM |  | > 50 µM |  | > 50 µM |  | > 50 µM |  |  |  | > 50 µM | > 50 µM | > 50 µM | > 50 µM | > 50 µM |
| Cn1nc2ccc([N+](=O)[O-])c(Cn3nnc4ccccc43)c2n1 |  | > 100 µM |  | > 100 µM |  | > 100 µM |  | > 100 µM |  | > 100 µM |  | > 100 µM |  | > 100 µM | > 100 µM | > 100 µM |  | > 100 µM |
| Cc1ccc(S(=O)(=O)NC(=O)Nc2nnc(S(N)(=O)=O)s2)cc1 |  | > 100 µM |  | > 100 µM |  | > 100 µM |  | > 100 µM |  | > 100 µM |  | > 100 µM |  | > 100 µM | > 100 µM | > 100 µM |  | > 100 µM |
| COC(=O)C1(NC(=O)C(CC(=O)OCc2ccccc2)NC(=O)OCc2ccccc2)CCCCCC1 (configuration not stated) |  | > 100 µM |  | 67.5 µM |  | > 100 µM |  | > 100 µM |  |  |  | > 100 µM |  | > 100 µM | > 100 µM | > 100 µM | > 100 µM | 21.9 µM |
| C[C@@]1(O)C2CC3CC1(c1ccccc1)CC(/C3=N/O)/C2=N\O (some centres not stated) |  | > 100 µM |  | > 100 µM |  |  |  | > 100 µM |  | > 100 µM |  |  |  | > 100 µM | > 100 µM | > 100 µM | > 100 µM |  |
| Cc1cc(C)nc(NS(=O)(=O)c2ccc(NC(=O)c3c4ccccc4nc4ccccc34)cc2)n1 |  | > 100 µM |  | > 100 µM |  |  |  | > 100 µM |  | > 100 µM |  | > 100 µM |  | > 100 µM | > 100 µM | > 100 µM | > 100 µM | > 100 µM |
| O=C(Nc1ccccc1F)c1cc2ccc(O)cc2oc1=Nc1cccc(F)c1 |  |  |  | 38.6 µM |  | 84.4 µM |  | 44.6 µM |  | 43.8 µM |  |  |  | 29.5 µM | 44.7 µM | > 100 µM | > 100 µM | > 100 µM |
| CC(C)(C)c1ccccc1N1C(=O)c2ccc3c4c(ccc(c24)C1=O)N(c1ccccc1C(C)(C)C)C3=O |  | > 100 µM |  | > 100 µM |  | > 100 µM |  | > 100 µM |  |  |  |  |  | > 100 µM | > 100 µM | > 100 µM | > 100 µM | > 100 µM |

Source: PubChem BioAssay (NCI)
